Results published in patent US8124382B2, “Methods, microarray, and kits for detection of drug resistance genes in gram-negative bacteria” (CapitalBio Corporation, priority 2006, dated 2012).

Key:
Assay in all cases: in vitro antimicrobial susceptibility test (MIC, CLSI standard method)
[1] = test system: K. pneumoniae BJ-7; type: cell-based, Klebsiella pneumoniae; conditions: for The in vitro antimicrobial susceptibility test/MIC: strain BJ-7 (K. pneumoniae), CLA at fixed concentration 4 μg/ml in combinations
Experimental: (§1) Three gram-negative bacteria in Table 3 were tested. The in vitro antimicrobial susceptibility result was obtained according to the standard method of Clinical and Laboratory Standards Institute (CLSI).

[2] = test system: K. pneumoniae E298; type: cell-based, Klebsiella pneumoniae; conditions: for The in vitro antimicrobial susceptibility test/MIC: strain E298 (K. pneumoniae), CLA at fixed concentration 4 μg/ml in combinations
Experimental: as §1

[3] = test system: K. pneumoniae BJ-35; type: cell-based, Klebsiella pneumoniae; conditions: for The in vitro antimicrobial susceptibility test/MIC: strain BJ-35 (K. pneumoniae), CLA at fixed concentration 4 μg/ml in combinations
Experimental: as §1

[4] = test system: E. cloacae TR3104; type: cell-based; conditions: strain TR3104; for The in vitro antimicrobial susceptibility test/MIC: CLA at fixed concentration 4 μg/ml in combinations
Experimental: as §1
The resistance genes in E. cloacae TR3104 were detected using the microarray in FIG. 1 according to the method in example 1. […] Thus the kit for detection of resistance genes in gram-negative bacteria in the present invention can be used to specifically detect the resistance genes in the prevalent gram-negative bacteria E. cloacae.

[5] = test system: E. coli Z302; type: cell-based; conditions: for The in vitro antimicrobial susceptibility test/MIC: strain Z302 (E. coli), CLA at fixed concentration 4 μg/ml in combinations
Experimental: as §1
The resistance genes in E. coli Z302 were detected using the microarray in FIG. 1 according to the method in Example 1. […] Thus the kit for detection of resistance genes in gram-negative bacteria in the present invention can be used to specifically detect the resistance genes in the prevalent gram-negative bacteria E. coli.

[6] = strain BJ-7, shown by microarray-detected genes, consistent with MIC results
[7] = strain E298, shown by microarray-detected genes, consistent with MIC results
[8] = strain BJ-35, shown by microarray-detected genes, consistent with MIC results
[9] = strain Z302, shown by microarray-detected genes, consistent with MIC results

Compound	The in vitro antimicrobial susceptibility test/MIC [1] [µg/mL]	The in vitro antimicrobial susceptibility test/MIC [2]	The in vitro antimicrobial susceptibility test/MIC [3] [µg/mL]	The in vitro antimicrobial susceptibility test/MIC [4]	The in vitro antimicrobial susceptibility test/MIC [5]	inhibition of the isolate's resistance by clavulanate [1, 6]	inhibition of the isolate's resistance by clavulanate [2, 7]	inhibition of the isolate's resistance by clavulanate [3, 8]	inhibition of the isolate's resistance by clavulanate [5, 9]	resistance or susceptibility of the isolate [1, 6]	resistance or susceptibility of the isolate [2, 7]	resistance or susceptibility of the isolate [3, 8]	resistance or susceptibility of the isolate ([4]; shown by microarray-detected genes, consistent with MIC results)	resistance or susceptibility of the isolate [5, 9]
CC(C)(O/N=C(\C(=O)N[C@@H]1C(=O)N2C(C(=O)[O-])=C(C[n+]3ccccc3)CS[C@H]12)c1csc(N)n1)C(=O)O [CAZ, ceftazidime]	32	≧128 μg/ml	4	4 µg/mL	≧128 μg/ml									
O=C(O)[C@H]1/C(=C/CO)O[C@@H]2CC(=O)N21 [clavulanate]						inhibited	not inhibited	inhibited	not inhibited					
C[C@@H](O)[C@H]1C(=O)N2C(C(=O)O)=C(SCCN=CN)C[C@H]12 [IMP, imipenem]	<0.5	<0.5 µg/mL	<0.5	4 µg/mL	4 µg/mL									
CO[C@@]1(NC(=O)Cc2cccs2)C(=O)N2C(C(=O)O)=C(COC(N)=O)CS[C@@H]21 [FOX, cefoxitin]	8	≧128 μg/ml	2	≧256 μg/ml	≧128 μg/ml					susceptible	resistant	susceptible	resistant	resistant
CO/N=C(\C(=O)N[C@@H]1C(=O)N2C(C(=O)O)=C(COC(C)=O)CS[C@H]12)c1csc(N)n1 [CTX, cefotaxime]	64	≧128 μg/ml	8	64 µg/mL	≧128 μg/ml									
